{"source": "patent US5008283A", "about": "(Pfizer Inc., priority 1990, dated 1991)", "key": {"collagenase [1]": {"test_system": "collagenase", "assay": "Inhibition of release of activated collagenase by IgG-stimulated neutrophils", "assay_type": "cell-based, human", "conditions": "for inhibitory effect on the release of activated collagenase (in words): at supraphysiological concentrations for those compounds; for Inhibition of Activated Neutrophil Collagenase Release, % Inhibition: human neutrophils on IgG coated wells; for inhibitory effect on the release of activated collagenase by neutrophils (in words): as shown in Table I", "text": "(§1) Whole human blood from normal volunteers was obtained by venipuncture into heparinized syringes. The majority of the red cells were removed by dextran sedimentation and neutrophils were separated by density centrifugation over hypaque ficoll. The neutrophil rich fraction was washed and residual red cells were removed by hypotonic lysis according to the procedure described by Blackburn, W.D. et al., Arthritis Rheum. 30:1006-1014 (1987). The neutrophils so prepared were used in the assays described below and cell viability was assured by determining their ability to exclude typan blue. In each assay the cell viability routinely exceeded 95%.\nTo assay for inhibition of release of activated collagenase by neutrophils,the following assay was performed. Neutrophil cell suspensions were incubated at 37° C. for 15-30 minutes in the presence of varying concentrations of tenidap or other compound under study. Tenidap was dissolved and diluted in water and added to the cells directly therefrom. Other compounds tested were initially dissolved in 0.1M NaOH and then diluted in water prior to addition to the cells. After the cells had been incubated in the presence of tenidap or other compound under study, the cell suspensions (5 × 10^6 cells/ml, 125 μl/well) were added to IgG coated and bovine serum albumin (BSA) blocked wells of microtiter plates and incubated for 45 minutes at 37° C. As controls, similar incubations were performed in the absence of IgG. Following incubation, the cell suspensions were centrifuged (750 × g) for 5 minutes at 4° C. The supernatants were removed and DFP (diisopropylfluorophosphate) was added to a final concentration of 10^-3 M to inactivate serine proteases.\nThen, the collagenase activity in the DFP treated supernatants was determined by incubating, in triplicate, 200 μl aliquots of supernatant with ^3 H-labeled reconstituted type-I collagen fibrils in 7 mm flat bottom tissue culture wells (Linbro®, Cat #76-032-05, Flow Laboratories McLean, Va) as described by Johnson-Wint, B., Anal. Biochem. 104:175-181 (1980). The reconstituted fibrils in each well contained 75 μg of a mixture of ^3 H-labeled and unlabeled collagen with an activity of 7,000 cpm. To determine the total radioactivity potentially released from the fibrils in each experiment, the reconstituted fibrils were also incubated with a mixture of clostridial collagenase (250 mg/ml HBSS (Hank's balanced salt solution, GIBCO, Grand Island, N.Y.)). To maximize sensitivity and specificity of the assay, incubations were performed for eighteen hours in triplicate at 37° C. At the end of the incubation period, the supernatants were aspirated from each well and the radioactivity was determined by counting in a liquid scintillation counter. Greater than 99% of the radioactivity applied to each well was recovered from wells incubated with bacterial collagenase. Average counts per minute released by fibrils incubated with buffer (HBSS) alone were subtracted from the cpm measured in each supernatant. The resulting triplicate values for each supernatant were averaged and divided by the average cpm released by the bacterial collagenase to determine the percent fibril lysis produced by each supernatant. The total activated collagen released during the eighteen hour incubation was then calculated and divided by the incubation time to yield values for the collagenase activity (ng collagen degraded/min) in each supernatant."}, "collagenase [2]": {"test_system": "collagenase", "assay": "Total collagenase released by IgG-stimulated neutrophils (supernatants activated with mersalyl)", "assay_type": "cell-based, human", "conditions": "supernatants activated with organic mercurial, tenidap concentration not given", "text": "as §1\nIn parallel experiments, release of total collagenase into the supernatants was determined by activating latent collagenase in the supernatants with 1.0 mM mersalyl (Harris, E.D. and Vater, C.A., Methodology of collagenase research: substrate purification, enzyme activation and purification. Collagenase in Normal Pathological Connective Tissues. Edited by D. E. Woolley, J. M. Evanson, Chichester, John Wiley & Sons, 1980) prior to addition of the supernatants to the radiolabeled collagen fibrils. […]"}, "myeloperoxidase": {"test_system": "myeloperoxidase", "assay": "Myeloperoxidase activity assay (ABTS/hydrogen peroxide, absorbance at 412 nm)", "assay_type": "biochemical", "conditions": "myeloperoxidase extracted from human neutrophils; varying concentrations of tenidap; figures not given", "text": "as §1\nNeutrophils (1.25 × 10^6 /ml, prepared as described above) were incubated for 60 minutes at 37° C. in either BSA or IgG coated tissue culture wells which had been blocked with BSA. Following incubation, the wells were aspirated and the cells were removed by centrifugation. […] Myeloperoxidase activity was then determined by adding 20 μl of the supernatant to 300 μl of 0.2M sodium acetate buffer, pH 4.5, containing 17 mg of 2,2'-azino-di-(3-ethylbenzthiazoline)sulfonic acid and 600 μl of 0.003% hydrogen peroxide. The activity of myeloperoxidase in the supernatant was then determined by the change in absorbance at 412 nm using a spectrophotometer as described by Shindler, J.S. et al., Eur. J. Biochem. 65:325-331 (1976)."}}, "data": [{"smiles": "COc1ccc2c(c1)c(CC(=O)O)c(C)n2C(=O)c1ccc(Cl)cc1", "note": "[Indomethacin]", "values": [{"measurement": "inhibitory effect on the release of activated collagenase (in words)", "setting": "collagenase [1]", "result": "some inhibitory effect"}, {"measurement": "Inhibition of Activated Neutrophil Collagenase Release, % Inhibition", "setting": "collagenase [1]; peak concentration 2.5 μM", "result": 14, "unit": "%"}]}, {"smiles": "CN1C(C(=O)Nc2ccccn2)=C(O)c2ccccc2S1(=O)=O", "note": "[Piroxicam]", "values": [{"measurement": "inhibitory effect on the release of activated collagenase (in words)", "setting": "collagenase [1]", "result": "some inhibitory effect"}, {"measurement": "Inhibition of Activated Neutrophil Collagenase Release, % Inhibition", "setting": "collagenase [1]; peak concentration 25 μM", "result": 18, "unit": "%"}]}, {"smiles": "COc1ccc2cc([C@H](C)C(=O)O)ccc2c1", "note": "[Naproxen]", "values": [{"measurement": "inhibitory effect on the release of activated collagenase by neutrophils (in words)", "setting": "collagenase [1]", "result": "no inhibitory effect"}, {"measurement": "Inhibition of Activated Neutrophil Collagenase Release, % Inhibition", "setting": "collagenase [1]; peak concentration 80 μM", "result": 0, "unit": "%"}]}, {"smiles": "NC(=O)N1C(=O)C(C(=O)c2cccs2)c2cc(Cl)ccc21", "note": "(stereo not drawn) [Tenidap, 5-chloro-2,3-dihydro-2-oxo-3-(2-thienylcarbonyl)-indole-1-carboxamide]", "values": [{"measurement": "inhibition of the release of activated collagenase from neutrophils (in words)", "setting": "collagenase [1]; at clinically relevant concentrations", "result": "significantly inhibited"}, {"measurement": "Inhibition of Activated Neutrophil Collagenase Release, % Inhibition", "setting": "collagenase [1]; peak concentration 87.5 μM", "result": 64, "unit": "%"}, {"measurement": "inhibition of the total amount of collagenase released by neutrophils", "setting": "collagenase [2]", "result": 22, "unit": "%"}, {"measurement": "inhibition of the activity of myeloperoxidase (in words)", "setting": "myeloperoxidase", "result": "inhibit the activity of myeloperoxidase"}]}, {"smiles": "CC(C)Cc1ccc(C(C)C(=O)O)cc1", "note": "(stereo not drawn) [Ibuprofen]", "values": [{"measurement": "inhibitory effect on the release of activated collagenase by neutrophils (in words)", "setting": "collagenase [1]", "result": "no inhibitory effect"}, {"measurement": "Inhibition of Activated Neutrophil Collagenase Release, % Inhibition", "setting": "collagenase [1]; peak concentration 175 μM", "result": 0, "unit": "%"}]}]}
